≈ marks a conversion by molar mass, not a printed value. Like-named read-outs stand apart in the source and are kept apart here.
Assays:
[1] = system: DSY-562 C. glabrata CI; assay: MIC determination in Candida strain DSY-562; format: cell-based; conditions: Nakaseomyces glabratus
Description: (§1) In Vitro Antifungal Activity. MIC values for various strains were determined in accordance with the standard protocol from the National Committee of Clinical Laboratory Standards but using YEPD liquid medium instead of RPMI-1640 medium (National Committee of Clinical Laboratory Standards (Reference Method for Broth Dilution Antifungal Susceptibility Testing of Yeast, M27-A2, Approved Standard-Second Edition, Volume 22, Number 15, 1995). AmB was used as a reference. The strains were cultivated overnight in 5 mL YEPD liquid medium at 30 to 37° C. (30° C. for the strain BY4741; 37° C. for the strain DSY1764) with constant shaking. The saturated cultures were diluted to an ODB600 of 0.1 (3×10P^7 cells/mL). Using 24 wells plate, each well was prepared by adding 1% (12 μL) of DMSO solution of the tested polyene macrolide with 1% (12 μL) yeast cells solution and completed with YEPD (1.176 mL). The plates were sealed with Parafilm and then incubated for 18 to 36 hours at 30 to 37° C. (18 hours at 30° C. for the strain BY4741; 36 hours at 37° C. for the strain DSY1764). The optical density was read at 600 nm using 1.5 mL cuvettes. The MIC value was defined as the drug concentration needed to inhibit growth, less than 5% compared to a drug-free culture.
(§2) MIC values of the polyene macrolides 3, 9 and 10 (Diamine-AmB and its ester and diamide derivative, respectively) in various Candida strains including an AmB-resistant strain C. albicans (DSY1764, with the genotype erg3AΔ::hisG/erg3BΔ::hisG erg11Δ::hisG/erg11Δ::hisG-URA3-hisG) were determined.

[2] = K+ efflux assay, ergosterol containing vesicles; conditions: lower concentration, 0.1 μM (FIG. 3a,c,e,g)
Description: (§3) FIG. 3. K^+ efflux from vesicles (LUVET100) prepared from […] (POPC) (solid line) or POPC with sterols (dotted line) for ergosterol and (broken line) for cholesterol caused by AmB (1a) (FIGS. 3a,b) and AmB diamine 3 (FIG. 3c,d), AmB diamine ester 9 (FIG. 3e,f) and AmB diamine amide 10 (FIG. 3g,h), added in DMSO to a suspension of vesicles to give final concentrations of 0.1 μM (FIG. 3a,c,e,g) and 1.0 μM (FIG. 3b,d,f,h).
K+ efflux assay. The K^+ efflux measurements were made following a previously described procedure (Zumbuehl, A. et al., Angew. Chem. Int. Ed. 2004, 43, 5181-5185; Zumbuehl, A. et al., Org. Lett. 2004, 6, 3683-3686). The appropriate liposome suspensions were prepared using POPC, cholesterol and ergosterol. Then the liposomes were sized by extrusion through two 400 nm, 200 nm, and finally 100 nm pore size membrane. The resultant “100 nm” unilamellar liposomes were dialyzed against 600 mL of 150 mM NaCl, 5 mM HEPES (pH 7.4) buffer. After, the suspension was diluted with 150 mM NaCl, 5 mM HEPES (pH 7.4) buffer to 1 mM overall lipid concentration (phospholipids+sterols). For each efflux measurement 10 mL of this liposome suspension was placed in a small beaker. Potentiometric measurements were performed with a 16-channel electrode monitor in magnetically stirred solutions at ambient temperature. The reference electrode was a Metrohm double junction Ag/AgCl reference electrode with 3 M KCl as reference electrolyte and 1 M LiOAc as bridge electrolyte. […] The resulting reading (taken after 0.5 h) was used to quantify the 100% K+-release.
As described hereinbefore differential interaction between ergosterol found in fungal membranes and cholesterol in mammalian cells is considered the basis for the selectivity of AmB (1a) as an antifungal agent. The preferential stabilization of ion channel formation in the membrane by ergosterol ultimately results in electrolyte leakage which can be conveniently measured by K^+ efflux from sterol containing vesicles. […]

[3] = system: CAF2-1 C. albican wt; assay: MIC determination in Candida strain CAF2-1; format: cell-based, Candida albicans; conditions: Candida albicans
Description: as §1, §2

[4] = K+ efflux assay, cholesterol containing vesicles; conditions: for K+ efflux with cholesterol-containing vesicles: high concentration, 1.0 μM (FIG. 3b,d,f,h), compared with AmB (1a); for K+ efflux with cholesterol containing vesicles: lower concentration, 0.1 μM (FIG. 3a,c,e,g)
Description: as §3
K+ efflux assay. The K^+ efflux measurements were made following a previously described procedure (Zumbuehl, A. et al., Angew. Chem. Int. Ed. 2004, 43, 5181-5185; Zumbuehl, A. et al., Org. Lett. 2004, 6, 3683-3686). The appropriate liposome suspensions were prepared using POPC, cholesterol and ergosterol. Then the liposomes were sized by extrusion through two 400 nm, 200 nm, and finally 100 nm pore size membrane. The resultant “100 nm” unilamellar liposomes were dialyzed against 600 mL of 150 mM NaCl, 5 mM HEPES (pH 7.4) buffer. After, the suspension was diluted with 150 mM NaCl, 5 mM HEPES (pH 7.4) buffer to 1 mM overall lipid concentration (phospholipids+sterols). For each efflux measurement 10 mL of this liposome suspension was placed in a small beaker. Potentiometric measurements were performed with a 16-channel electrode monitor in magnetically stirred solutions at ambient temperature. The reference electrode was a Metrohm double junction Ag/AgCl reference electrode with 3 M KCl as reference electrolyte and 1 M LiOAc as bridge electrolyte. After recording the amphotericin-induced potassium efflux, liposomes were lysed by adding sodium cholate (172 mg). The resulting reading (taken after 0.5 h) was used to quantify the 100% K+-release.
As described hereinbefore differential interaction between ergosterol found in fungal membranes and cholesterol in mammalian cells is considered the basis for the selectivity of AmB (1a) as an antifungal agent. The preferential stabilization of ion channel formation in the membrane by ergosterol ultimately results in electrolyte leakage which can be conveniently measured by K^+ efflux from sterol containing vesicles. To assess the interaction of the polyene macrolide derivatives of the invention with sterols, derivatives 3, 9 and 10 were examined in their ability to lead to K^+ efflux from large unilamellar vesicles (LUV) prepared from POPC (1-palmitoyl-2-oleoyl-sn-glycero-3-phosphocholine) admixed with sterols, mimicking conditions in natural biomembranes (FIG. 3). At high concentration (FIG. 3b,d,f,h), all compounds rapidly induce complete K^+ efflux from vesicles containing ergosterol (dotted line). […] This differentiation between ergosterol and cholesterol is consistent with the observation of reduced hemotoxicity of 3, 9 and 10.

[5] = Solubility assay; format: physicochemical; conditions: for solubility: PBS buffer, pH 7.2, aqueous buffer, kinetic from dmso stock, read-out: Solubility in water
Description: Solubility assay. The solubility assay was performed according to Lipinski, C. A. et al Advances Drug Delivery Reviews 2001, 46, 3-26. Typically, a compound of the invention was dissolved in DMSO at a concentration of 10 μg/μl. The so obtained solution was added in […] at 1 min intervals to 2.5 ml PBS buffer solution pH 7.2. These additions correspond to solubility increments of 5 μg/ml to a top value of 65 μg/ml. A total of 14 additions were made and each time increased UV absorbance from light scattering was measured at 600 nm. The precipitation point was calculated from a bilinear curve fit to the Absorbance (y axis) versus μl of DMSO (x axis) plot.
The solubility of the polyene macrolides of the invention in water was tested following the above described protocol. Clearly, all conjugates were more soluble in water then AmB.

[6] = system: Saccharomyces cerevisiae wild type BY4741; assay: MIC determination in Saccharomyces cerevisiae wild type BY4741; format: cell-based; conditions: for MIC: read-out: MIC; for times more active than AmB (MIC): relative to AmB
Description: as §1
MIC values of various polyene macrolides of the invention in Saccharomyces cerevisiae wild type BY4741, a derivative of S288C, (with AmB as a reference) were determined as described hereinabove.
Based on the remarkable performance observed with the Diamine-AmB conjugate similar modifications of the aminosugar moiety were made on other polyene macrolides, such as for example Nystatin (1b) and Pimaricin (1c). The antifungal activity of these nystatin and pimaricin conjugates bearing two aminopropyl side chains was measured using Saccharomyces cerevisiae wild type BY4741.

[7] = DMSO stock added to PBS buffer solution pH 7.2, precipitation point by light scattering at 600 nm
[8] = Saccharomyces cerevisiae wild type BY4741, YEPD liquid medium, 18 hours at 30° C.
[9] = Saccharomyces cerevisiae wild type BY4741
[10] = Saccharomyces cerevisiae, Table 3, strain not given, values as in Table 1 (S. cerevisiae BY4741)

Compound | MIC [1] | K+ efflux with ergosterol containing vesicles [2] | MIC [3] | K+ efflux with cholesterol-containing vesicles [4] | K+ efflux with cholesterol containing vesicles [4] | solubility [5, 7] | MIC [6, 8] | times more active than AmB (MIC) [6, 9] | MIC [6, 10] | Solubility in water ([5]; DMSO stock added to PBS buffer solution pH 7.2, precipitation point by light scattering at 600 nm, listed as Diamine-Amide 10) | solubility in water compared with AmB ([5]; relative to AmB)
COC(=O)[C@H]1[C@@H]2C[C@@H](O[C@@H]3O[C@H](C)[C@@H](O)[C@H](N(CCCN)CCCN)[C@@H]3O)/C=C/C=C/C=C/C=C/C=C/C=C/C=C/[C@H](C)[C@@H](O)[C@@H](C)[C@H](C)OC(=O)C[C@H](O)C[C@H](O)CC[C@@H](O)[C@H](O)C[C@H](O)C[C@](O)(C[C@@H]1O)O2 [compound 9, N,N-Di-(3-aminopropyl)-AmB Methyl Ester] | 0.25 µM (≈ 0.263 µg/mL) | observed exclusively with the ergosterol containing vesicles | 0.5 µM (≈ 0.526 µg/mL) | significantly reduced efflux | indistinguishable from background | 22 µg/mL (≈ 20.9 µM) | 0.1 µM (≈ 0.105 µg/mL) | 3 times | 0.1 µM (≈ 0.105 µg/mL) |  | 
C[C@@H]1[C@H](O)[C@@H](C)/C=C/C=C/C=C/C=C/C=C/C=C/C=C/[C@H](O[C@@H]2O[C@H](C)[C@@H](O)[C@H](N(CCCN)CCCN)[C@@H]2O)CC2O[C@](O)(C[C@@H](O)C[C@@H](O)[C@H](O)CC[C@@H](O)C[C@@H](O)CC(=O)O[C@H]1C)C[C@H](O)[C@H]2C(=O)NCCN [compound 10, 16-(N′-(2-Aminoethyl)-carboxamide)-N,N-di-(3-aminopropyl)-AmB] | 0.5 µM (≈ 0.54 µg/mL) | observed exclusively with the ergosterol containing vesicles | 2 µM (≈ 2.16 µg/mL) | significantly reduced efflux | indistinguishable from background | ≤ 40 µg/mL | 0.04 µM (≈ 0.0432 µg/mL) | 7.5 times | 0.04 µM (≈ 0.0432 µg/mL) | 40 µg/mL (≈ 37 µM) | four times more soluble
